Test results as given in patent publication US12435044B2, “Pyridazinone herbicides and pyridazinone intermediates used to prepare a herbicide” (FMC Corporation, priority 2018, dated 2025).

Tests used:
Assay type in all cases: in vivo
[1] = tested on: pigweed (Amaranthus retroflexus); experiment: Test C pre-/postemergence greenhouse test; settings: scale 0 to 100
Outline: (§1)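 Test chemicals in a non-phytotoxic solvent mixture with surfactant; preemergence on seeds sown in silt loam, postemergence on plants 2–18 cm tall (1- to 4-leaf stage) in peat/vermiculite medium. Greenhouse for 13–21 d, then visual rating against untreated controls, 0 (no effect) to 100 (complete control).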

[2] = tested on: arrowleaf sida (Sida rhombifolia); experiment: Test E pre-/postemergence greenhouse test
Excerpt: (§2) Seeds of plant species selected from corn (Zea mays), soybean (Glycine max), velvetleaf (Abutilon theophrasti), lambsquarters (Chenopodium album), poinsettia, wild (Euphorbia heterophylla), pigweed, palmer (Amaranthus palmeri), waterhemp (common waterhemp, Amaranthus rudis), surinam grass (Brachiaria decumbens), crabgrass, large (Digitaria sanguinalis), crabgrass, Brazil (Digitaria horizontalis), panicum, fall (Panicum dichotomiflorum), foxtail, giant (Setaria faberii), foxtail, green (Setaria viridis), goosegrass (Eleusine indica), johnsongrass (Sorghum halepense), ragweed (common ragweed, Ambrosia elatior), barnyardgrass (Echinochloa crus-galli), sandbur (southern sandbur, Cenchrus echinatus), arrowleaf sida (Sida rhombifolia), ryegrass, Italian (Lolium multiflorum), dayflower, VA (Virginia (VA) dayflower, Commelina virginica), field bindweed (Convolvulus arvensis), morningglory (Ipomoea coccinea), horseweed (Conyza canadensis), kochia (Kochia scoparia), nutsedge, yellow (Cyperus esculentus) and hairy beggarticks (Bidenspilosa), were planted into a silt loam soil and treated preemergence with test chemicals formulated in a non-phytotoxic solvent mixture which included a surfactant.
(§3) At the same time, plants selected from these crop and weed species and also waterhemp_RES1, (ALS & Triazine resistant common waterhemp, Amaranthus rudis), and waterhemp_RES2, (ALS & HPPD resistant common waterhemp, Amaranthus rudis) were planted in pots containing Redi-Earth® planting medium (Scotts Company, 14111 Scottslawn Road, Marysville, Ohio 43041) comprising spaghnum peat moss, vermiculite, wetting agent and starter nutrients were treated with postemergence applications of test chemicals formulated in the same manner. Plants ranged in height from 2 to 18 cm for postemergence treatments (1- to 4-leaf stage). Treated plants and controls were maintained in a greenhouse for 14 to 21 d, after which time all species were compared to controls and visually evaluated. Plant response ratings, summarized in Table E, are based on a scale of 0 to 100 where 0 is no effect and 100 is complete control. A dash (-) response means no test result.

[3] = tested on: field bindweed (Convolvulus arvensis); experiment: Test E pre-/postemergence greenhouse test
Excerpt: as §2, §3

[4] = tested on: johnsongrass (Sorghum halepense); experiment: Test E pre-/postemergence greenhouse test; settings: Preemergence
Excerpt: as §2, §3

[5] = tested on: ryegrass, Italian (Lolium multiflorum); experiment: Test E pre-/postemergence greenhouse test
Excerpt: as §2, §3

[6] = tested on: sandbur (southern sandbur, Cenchrus echinatus); experiment: Test E pre-/postemergence greenhouse test
Excerpt: as §2, §3

[7] = tested on: horseweed (Conyza canadensis); experiment: Test C postemergence greenhouse test; settings: scale 0 to 100
Outline: as §1

[8] = tested on: nightshade (eastern black nightshade, Solanum ptycanthum); experiment: Test C postemergence greenhouse test; settings: scale 0 to 100
Outline: as §1

Cc1ccc2ccc(C)c(-c3c(O)c(Cl)nn(C)c3=O)c2c1 [Cpd. No. 20, 6-chloro-4-(2,7-dimethyl-1-naphthalenyl)-5-hydroxy-2-methyl-3(2H)-pyridazinone]
Plant response rating, Pigweed ([1]; Postemergence, 16 g ai/ha): 90 | Plant response rating, Pigweed ([1]; Postemergence, 31 g ai/ha): 95 | Plant response rating, Pigweed ([1]; Postemergence, 62 g ai/ha): 95 | Plant response rating, Pigweed ([1]; Postemergence, 125 g ai/ha): 98 | Plant response rating, Pigweed ([1]; Preemergence, 31 g ai/ha): 100 | Plant response rating, Pigweed ([1]; Preemergence, 61 g ai/ha): 100 | Plant response rating, Pigweed ([1]; Preemergence, 62 g ai/ha): 100 | Plant response rating, Pigweed ([1]; Preemergence, 125 g ai/ha): 100 | Plant response rating, Arrowleaf Sida ([2]; Postemergence, 16 g ai/ha): 60 | Plant response rating, Arrowleaf Sida ([2]; Postemergence, 31 g ai/ha): 70 | Plant response rating, Arrowleaf Sida ([2]; Postemergence, 62 g ai/ha): 70 | Plant response rating, Arrowleaf Sida ([2]; Postemergence, 125 g ai/ha): 75 | Plant response rating, Arrowleaf Sida ([2]; Preemergence, 16 g ai/ha): 90 | Plant response rating, Arrowleaf Sida ([2]; Preemergence, 31 g ai/ha): 90 | Plant response rating, Arrowleaf Sida ([2]; Preemergence, 62 g ai/ha): 80 | Plant response rating, Arrowleaf Sida ([2]; Preemergence, 125 g ai/ha): 85 | Plant response rating, Field Bindweed ([3]; Postemergence, 16 g ai/ha): 75 | Plant response rating, Field Bindweed ([3]; Postemergence, 31 g ai/ha): 90 | Plant response rating, Field Bindweed ([3]; Postemergence, 62 g ai/ha): 90 | Plant response rating, Field Bindweed ([3]; Postemergence, 125 g ai/ha): 90 | Plant response rating, Field Bindweed ([3]; Preemergence, 16 g ai/ha): 5 | Plant response rating, Field Bindweed ([3]; Preemergence, 31 g ai/ha): 85 | Plant response rating, Field Bindweed ([3]; Preemergence, 62 g ai/ha): 90 | Plant response rating, Field Bindweed ([3]; Preemergence, 125 g ai/ha): 100 | Plant response rating, Johnsongrass ([4]; 16 g ai/ha): 0 | Plant response rating, Johnsongrass ([4]; 31 g ai/ha): 0 | Plant response rating, Johnsongrass ([4]; 125 g ai/ha): 50 | Plant response rating, Ryegrass, Italian ([5]; Postemergence, 16 g ai/ha): 70 | Plant response rating, Ryegrass, Italian ([5]; Postemergence, 31 g ai/ha): 80 | Plant response rating, Ryegrass, Italian ([5]; Postemergence, 62 g ai/ha): 85 | Plant response rating, Ryegrass, Italian ([5]; Postemergence, 125 g ai/ha): 90 | Plant response rating, Ryegrass, Italian ([5]; Preemergence, 16 g ai/ha): 0 | Plant response rating, Ryegrass, Italian ([5]; Preemergence, 31 g ai/ha): 25 | Plant response rating, Ryegrass, Italian ([5]; Preemergence, 62 g ai/ha): 98 | Plant response rating, Ryegrass, Italian ([5]; Preemergence, 125 g ai/ha): 95 | Plant response rating, Sandbur ([6]; Postemergence, 16 g ai/ha): 60 | Plant response rating, Sandbur ([6]; Postemergence, 31 g ai/ha): 60 | Plant response rating, Sandbur ([6]; Postemergence, 62 g ai/ha): 70 | Plant response rating, Sandbur ([6]; Postemergence, 125 g ai/ha): 85 | Plant response rating, Sandbur ([6]; Preemergence, 16 g ai/ha): 30 | Plant response rating, Sandbur ([6]; Preemergence, 31 g ai/ha): 75 | Plant response rating, Sandbur ([6]; Preemergence, 62 g ai/ha): 85 | Plant response rating, Sandbur ([6]; Preemergence, 125 g ai/ha): 90

Cc1ccc2ccc(F)cc2c1-c1c(O)c(Cl)nn(C)c1=O [Cpd. No. 21]
Plant response rating, Horseweed ([7]; 16 g ai/ha): 80 | Plant response rating, Horseweed ([7]; 31 g ai/ha): 85 | Plant response rating, Horseweed ([7]; 62 g ai/ha): 90 | Plant response rating, Horseweed ([7]; 125 g ai/ha): 90

Cc1cc(Cl)c2ccccc2c1-c1c(O)c(Cl)nn(C)c1=O [Cpd. No. 65]
Plant response rating, Nightshade ([8]; 16 g ai/ha): 90 | Plant response rating, Nightshade ([8]; 31 g ai/ha): 100 | Plant response rating, Nightshade ([8]; 62 g ai/ha): 100 | Plant response rating, Nightshade ([8]; 125 g ai/ha): 100
